Data on 22 compounds can be found in US12084472B2 (Ardelyx, Inc., priority 2015, dated 2024).

Structures are written as SMILES.

This assay deals with T1, human TGR5 (Homo sapiens, UniProt Q8TDU6).
T1 construct: expressed in transfected cells; host or cells: HEK293
T1 sequence (Q8TDU6 1-330): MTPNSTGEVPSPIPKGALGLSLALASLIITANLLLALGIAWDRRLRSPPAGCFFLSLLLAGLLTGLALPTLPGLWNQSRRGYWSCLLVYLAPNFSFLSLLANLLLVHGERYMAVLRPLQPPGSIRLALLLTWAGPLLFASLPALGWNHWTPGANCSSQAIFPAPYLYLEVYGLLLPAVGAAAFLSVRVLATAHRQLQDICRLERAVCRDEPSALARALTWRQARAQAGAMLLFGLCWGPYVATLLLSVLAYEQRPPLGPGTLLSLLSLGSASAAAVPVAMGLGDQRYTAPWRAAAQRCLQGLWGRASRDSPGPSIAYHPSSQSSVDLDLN
The assay can be described thus: Cell-based TGR5 assay (cAMP generation, HTRF). The note with it: HEK293 cells stably transfected with human TGR5; cAMP by HTRF; 30 minutes at 37° C.; read-out: pEC50 Human TGR5 (converted). The method in brief: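 First, compounds in 3-fold serial dilution were placed in HBSS with 10 mM HEPES pH 7.4 and 0.5 mM IBMX. Next, human TGR5-expressing HEK293 cells were added and incubated 30 min at 37° C. Finally, cAMP was detected by HTRF and pEC50 derived by logistic fitting.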
A general note: Time-resolved FRET reads energy transfer from a long-lived donor to a nearby acceptor.
In the case of `CSc1ccc(Cl)c(CNC2(c3cnccc3-c3ccccc3OC3CC3)CC2)c1` [Compound I-23, N-{[2-chloro-5-(methylsulfanyl)phenyl]methyl}-1-[4-(2-cyclopropoxyphenyl)pyridin-3-yl]cyclopropan-1-amine], the EC50 was less than 100 nM.

With `Cc1ccc(C(F)(F)F)cc1CNC1(c2cnccc2-c2ccccc2OC2CC2)CC1` [Compound I-37, 1-[4-(2-cyclopropoxyphenyl)pyridin-3-yl]-N-{[2-methyl-5-(trifluoromethyl)phenyl]methyl}cyclopropan-1-amine], the EC50 is less than 100 nM.

In the case of `C[C@H](CCCCN)c1ccc(Cl)c(COC2(c3cnccc3-c3ccccc3OC3CC3)CC2)c1` (single isomer, unassigned) [Compound I-245], the EC50 is 126 to 1000 nM.

For the compound `O=C([C@@H](O)[C@@H](O)[C@H](O)[C@@H](O)CO)N(CCCCO)CCCCSc1ccc(Cl)c(CNC2(c3cnccc3-c3ccccc3OC3CC3)CC2)c1` [Compound I-534, (2S,3S,4R,5S)-N-[4-({4-chloro-3-[({1-[4-(2-cyclopropoxyphenyl)pyridin-3-yl]cyclopropyl}amino)methyl]phenyl}sulfanyl)butyl]-2,3,4,5,6-pentahydroxy-N-(4-hydroxybutyl)hexanamide], the EC50 is less than 100 nM.

Regarding `CN(C)C(=O)CCN(C[C@H](O)[C@@H](O)[C@H](O)[C@H](O)CO)C(=O)CCCSc1ccc(Cl)c(COC2(c3cnccc3-c3ccccc3OC3CC3)CC2)c1` [Compound I-671, 4-{[4-chloro-3-({1-[4-(2-cyclopropoxyphenyl)pyridin-3-yl]cyclopropoxy}methyl)phenyl]sulfanyl}-N-[2-(dimethylcarbamoyl)ethyl]-N-[(2S,3R,4R,5R)-2,3,4,5,6-pentahydroxyhexyl]butanamide], the EC50 was 126 to 1000 nM.

`CC(=O)N(CCCCCSc1ccc(Cl)c(COC2(c3cnccc3-c3ccccc3OC3CC3)CC2)c1)C[C@H](O)[C@@H](O)[C@H](O)[C@H](O)CO` [Compound I-695, N-(5-{[4-chloro-3-({1-[4-(2-cyclopropoxyphenyl)pyridin-3-yl]cyclopropoxy}methyl)phenyl]sulfanyl}pentyl)-N-[(2S,3R,4R,5R)-2,3,4,5,6-pentahydroxyhexyl]acetamide]: the EC50 was less than 100 nM.

Take `C[C@@H](CCCCNC(=O)NC[C@H](O)[C@@H](O)[C@H](O)[C@H](O)CO)c1ccc(Cl)c(CNC2(c3cnccc3-c3ccccc3OC3CC3)CC2)c1` (single isomer, unassigned) [Compound I-255]: the EC50 is less than 100 nM.

Consider `O=C(CCCCc1cc(Cl)c(COC2(c3cnccc3-c3ccccc3OC3CC3)CC2)cc1Cl)N[C@@H](C(=O)O)[C@@H](O)[C@H](O)[C@H](O)CO` [Compound I-153], for which the EC50 is less than 100 nM.

For `CSc1ccc(Cl)c(COC2(c3cnccc3-c3ccccc3OC3CC3)CC2)c1` [Compound I-617, 3-(1-{[2-chloro-5-(methylsulfanyl)phenyl]methoxy}cyclopropyl)-4-(2-cyclopropoxyphenyl) pyridine], the EC50 was less than 100 nM.

For the compound `O=C(CCCCc1cc(Cl)c(COC2(c3cnccc3-c3ccccc3OC3CC3)CC2)cc1Cl)N1CCN(C[C@H](O)[C@@H](O)[C@H](O[C@@H]2O[C@H](CO)[C@H](O)[C@H](O)[C@H]2O)[C@H](O)CO)CC1` [Compound I-103, 5-[2,5-dichloro-4-({1-[4-(2-cyclopropoxyphenyl)pyridin-3-yl]cyclopropoxy}methyl)phenyl]-1-{4-[(2S,3R,4R,5R)-2,3,5,6-tetrahydroxy-4-{[(2S,3R,4S,5R,6R)-3,4,5-trihydroxy-6-(hydroxymethyl)oxan-2-yl]oxy}hexyl]piperazin-1-yl}pentan-1-one], the EC50 was less than 100 nM.

Consider `Cc1cc(CNC2(c3cnccc3-c3ccccc3OC3CC3)CC2)c(Cl)cc1CCCCC(=O)N(C)C[C@H](O)[C@@H](O)[C@H](O)[C@H](O)CO` [Compound I-143, 5-{5-chloro-4-[({1-[4-(2-cyclopropoxyphenyl)pyridin-3-yl]cyclopropyl}amino)methyl]-2-methylphenyl}-N-methyl-N-[(2S,3R,4R,5R)-2,3,4,5,6-pentahydroxyhexyl]pentanamide], for which the EC50 was less than 100 nM.

Take `O=C(O)CN(CCN(CC(=O)O)CC(=O)NCCOCCSc1ccc(Cl)c(COC2(c3cnccc3-c3ccccc3OC3CC3)CC2)c1)CC(=O)NCCOCCSc1ccc(Cl)c(COC2(c3cnccc3-c3ccccc3OC3CC3)CC2)c1` [Compound I-612, 2-({2-[(carboxymethyl)({[2-(2-{[4-chloro-3-({1-[4-(2-cyclopropoxyphenyl)pyridin-3-yl]cyclopropoxy}methyl)phenyl]sulfanyl}ethoxy)ethyl]carbamoyl}methyl)amino]ethyl}({[2-(2-{[4-chloro-3-({1-[4-(2-cyclopropoxyphenyl)pyridin-3-yl]cyclopropoxy}methyl)phenyl]sulfanyl}ethoxy)ethyl]carbamoyl}methyl)amino)acetic acid]: the EC50 is 126 to 1000 nM.

`CC(C)c1ccc(SCCCC(=O)N(C)C[C@H](O)[C@@H](O)[C@H](O)[C@H](O)CO)cc1COC1(c2cnccc2-c2ccccc2OC2CC2)CC1` [Compound I-620, 4-{[3-({1-[4-(2-cyclopropoxyphenyl)pyridin-3-yl]cyclopropoxy}methyl)-4-(propan-2-yl)phenyl]sulfanyl}-N-methyl-N-[(2S,3R,4R,5R)-2,3,4,5,6-pentahydroxyhexyl]butanamide]: the EC50 is 1260 to 10000 nM.

Take `Cc1ccccc1-c1ccncc1C1(NCc2cc(Cl)ccc2Cl)CC1` [Compound I-6, N-[(2,5-dichlorophenyl)methyl]-1-[4-(2-methylphenyl)pyridin-3-yl]cyclopropan-1-amine]: the EC50 is 126 to 1000 nM.

As to `CN(CCCCNC(=O)N[C@@H](CO)[C@@H](O)[C@H](O)[C@H](O)CO)S(=O)(=O)c1cc(CNC2(c3cnccc3-c3ccccc3OC3CC3)CC2)c(Cl)cc1F` [Compound I-475, 1-(4-{N-methyl4-chloro-5-[({1-[4-(2-cyclopropoxyphenyl)pyridin-3-yl]cyclopropyl}amino)methyl]-2-fluorobenzenesulfonamido}butyl)-3-[(2S,3R,4S,5R)-1,3,4,5,6-pentahydroxyhexan-2-yl]urea], the EC50 is less than 100 nM.

As to `NC(=O)CN(CCCCCSc1ccc(Cl)c(COC2(c3cnccc3-c3ccccc3OC3CC3)CC2)c1)C(=O)[C@@H](O)[C@@H](O)[C@H](O)[C@@H](O)CO` [Compound I-609, (2S,3S,4R,5S)-N-(carbamoylmethyl)-N-(5-{[4-chloro-3-({1-[4-(2-cyclopropoxyphenyl)pyridin-3-yl]cyclopropoxy}methyl)phenyl]sulfanyl}pentyl)-2,3,4,5,6-pentahydroxyhexanamide], the EC50 is less than 100 nM.

As to `Cc1cc(COC2(c3cnccc3-c3ccccc3OC3COC3)CC2)c(Cl)cc1CCCCNC(=O)N(C)C[C@H](O)[C@@H](O)[C@H](O)[C@H](O)CO` [Compound I-191, 1-(4-{5-chloro-2-methyl-4-[(1-{4-[2-(oxetan-3-yloxy)phenyl]pyridin-3-yl}cyclopropoxy)methyl]phenyl}butyl)-3-methyl-3-[(2S,3R,4R,5R)-2,3,4,5,6-pentahydroxyhexyl]urea], the EC50 was less than 100 nM.

Regarding `Cc1ccc(CCCCC(=O)N(C)C[C@H](O)[C@@H](O)[C@H](O)[C@H](O)CO)cc1CNC1(c2cnccc2-c2ccccc2OC2CC2)CC1` (stereo in doubt) [Compound I-238, 5-{3-[({1-[4-(2-cyclopropoxyphenyl)pyridin-3-yl]cyclopropyl}amino)methyl]-4-methylphenyl}-N-methyl-N-[(2S,3R,4R,5R)-2,3,4,5,6-pentahydroxyhexyl]pentanamide], the EC50 was 126 to 1000 nM.

`CN(C[C@H](O)[C@@H](O)[C@H](O)[C@H](O)CO)C(=O)CN1CCN(CCNC(=O)CCCCc2cc(Cl)c(COC3(c4cnccc4-c4ccccc4OC4CC4)CC3)cc2Cl)CC1` [Compound I-100, 5-[2,5-dichloro-4-({1-[4-(2-cyclopropoxyphenyl)pyridin-3-yl]cyclopropoxy}methyl)phenyl]-N-{2-[4-({methyl[(2S,3R,4R,5R)-2,3,4,5,6-pentahydroxyhexyl]carbamoyl}methyl)piperazin-1-yl]ethyl}pentanamide]: the EC50 is less than 100 nM.

Turning to `Cc1ccc(SCCCN(CCCCO)C(=O)[C@@H](O)[C@@H](O)[C@H](O)[C@@H](O)CO)cc1CNC1(c2cnccc2-c2ccccc2OC2CC2)CC1` [Compound I-546, (2S,3S,4R,5S)-N-[3-({3-[({1-[4-(2-cyclopropoxyphenyl)pyridin-3-yl]cyclopropyl}amino)methyl]-4-methylphenyl}sulfanyl)propyl]-2,3,4,5,6-pentahydroxy-N-(4-hydroxybutyl) hexanamide], the EC50 was 126 to 1000 nM.

Consider `CC(=O)NCCCCN(CCCCSc1ccc(Cl)c(COC2(c3cnccc3-c3ccccc3OC3CC3)CC2)c1)C(=O)[C@@H](O)[C@@H](O)[C@H](O)[C@@H](O)CO` [Compound I-568, (2S,3S,4R,5S)-N-(4-{[4-chloro-3-({1-[4-(2-cyclopropoxyphenyl)pyridin-3-yl]cyclopropoxy}methyl)phenyl]sulfanyl}butyl)-N-(4-acetamidobutyl)-2,3,4,5,6-pentahydroxyhexanamide], for which the EC50 was less than 100 nM.

With `CN(C[C@H](O)[C@@H](O)[C@H](O)[C@H](O)CO)C(=O)CCSc1ccc(Cl)c(COC2(c3cnccc3-c3ccccc3OC3CC3)CC2)c1` [Compound I-677, 3-{[4-chloro-3-({1-[4-(2-cyclopropoxyphenyl)pyridin-3-yl]cyclopropoxy}methyl)phenyl]sulfanyl}-N-methyl-N-[(2S,3R,4R,5R)-2,3,4,5,6-pentahydroxyhexyl]propanamide], the EC50 was less than 100 nM.
